Data taken from patent EP1207159A1, “Aromaheterocyclic derivatives as dopamine D4 receptor antagonists” (TAISHO PHARMACEUTICAL CO. LTD, priority 1993, dated 1999).
Counter-ions that a name gives are not always drawn.

What was measured:
Dopamine D2 Receptor = target: T1, Dopamine D2 Receptor (Rattus norvegicus, UniProt P61169); experiment: Dopamine D2 receptor binding assay ([3H]raclopride, rat striatum membrane); conditions: 50% inhibition of [3H]raclopride (1 nM) binding, 25°C, an hour
T1 construct: Rat striatum was homogenized in 50 mM Tris-hydrochloric acid buffer (pH 7.4), centrifuged at 48,000 × g; from tissue; host or cells: rat striatum membrane
T1 sequence (P61169 whole entry): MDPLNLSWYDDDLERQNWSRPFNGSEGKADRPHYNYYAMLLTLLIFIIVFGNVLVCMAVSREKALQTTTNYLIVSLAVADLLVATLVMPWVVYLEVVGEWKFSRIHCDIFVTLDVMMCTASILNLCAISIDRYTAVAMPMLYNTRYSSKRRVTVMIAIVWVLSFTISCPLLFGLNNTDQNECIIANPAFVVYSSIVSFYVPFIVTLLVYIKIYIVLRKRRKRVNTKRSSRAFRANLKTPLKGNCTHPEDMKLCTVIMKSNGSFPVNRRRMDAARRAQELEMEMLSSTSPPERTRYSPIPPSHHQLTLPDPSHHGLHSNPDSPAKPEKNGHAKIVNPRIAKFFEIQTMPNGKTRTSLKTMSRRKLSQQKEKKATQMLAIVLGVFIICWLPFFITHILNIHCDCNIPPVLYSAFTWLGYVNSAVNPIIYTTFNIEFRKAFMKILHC
Procedure: Rat striatum membrane was used as a receptor preparation.
[^3H]raclopride was used as [^3H]-labeled ligand.
A binding reaction using the [^3H]-labeled ligand was carried out according to the following method as described in Mol. J. Pharmacol., 43, 749(1993).
Preparation of Receptor Preparation: Rat striatum was homogenized in 50 mM Tris-hydrochloric acid buffer (pH 7.4), centrifuged at 48,000 × g, and the precipitate was washed once with a Tris-hydrochloric acid buffer. The precipitate was suspended in 50 mM Tris-hydrochloric acid buffer (pH 7.4) containing 120 mM NaCl, 1.5 mM KCl, 2 mM CaCl2 and 1 mM MgCl2 to give a membrane preparation.
Dopamine D2 Receptor Binding Assay: The membrane preparation (0.5 mg of protein/ml), [^3H]raclopride (1 nM) and each test drug were reacted at 25°C for an hour.
After completion of the reaction, the reaction solution was filtered by suction through a glass filter (GF/B), and the radioactivity on the filter was determined by a liquid scintillation spectrometer.
The binding under the reaction in the presence of 10 µM haloperidol was defined as non-specific binding of [^3H]raclopride, and the difference between total binding and non-specific binding was defined as specific binding. […]

human D4.2 receptor = target: T2, human D4.2 receptor (Homo sapiens, UniProt P21917, DEL265-296); experiment: Dopamine D4 receptor binding assay ([3H]spiperone, CHO cell membranes); conditions: 50% inhibition of [3H]spiperone binding; CHO cell membranes expressing human D4.2 receptor; 27°C, 2 hours
T2 construct: expressed in transfected cells; host or cells: CHO cells (membranes)
T2 sequence (P21917 with tags, fused parts or gaps DEL265-296): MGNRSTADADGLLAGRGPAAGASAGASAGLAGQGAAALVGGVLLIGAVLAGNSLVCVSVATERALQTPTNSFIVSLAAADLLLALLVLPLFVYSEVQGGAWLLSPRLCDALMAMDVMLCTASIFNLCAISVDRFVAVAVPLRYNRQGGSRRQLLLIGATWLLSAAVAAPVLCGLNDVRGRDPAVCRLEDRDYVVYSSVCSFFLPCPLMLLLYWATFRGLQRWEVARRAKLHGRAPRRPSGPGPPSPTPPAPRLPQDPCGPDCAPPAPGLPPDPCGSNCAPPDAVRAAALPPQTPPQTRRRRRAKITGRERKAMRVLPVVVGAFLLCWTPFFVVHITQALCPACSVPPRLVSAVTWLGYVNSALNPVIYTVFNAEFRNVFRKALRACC
Procedure: Chinese hamster ovarium (CHO) cell membranes wherein human D4.2 receptor was expressed were used as a receptor preparation.
[^3H]spiperone was used as [^3H]-labeled ligand.
A binding reaction using the [^3H]-labeled ligand was carried out according to the following method as described in Eur. J. Pharmacol., 233, 173(1993).
Dopamine D4.2 Receptor Binding Assay: The CHO cell membranes wherein human D4.2 receptor was expressed, [^3H]spiperone ([…]) and each test drug were reacted in 50 mM Tris-hydrochloric acid buffer (pH 7.4) containing 5 mM EDTA, 1.5 mM CaCl2, 5 mM KCl and 120 mM NaCl at 27°C for 2 hours.
After completion of the reaction, the reaction solution was filtered by suction through a glass filter (GF/B), and the radioactivity on the filter was measured by a liquid scintillation spectrometer.
The binding under the reaction in the presence of 10 µM haloperidol was defined as non-specific binding of [^3H]spiperone, and the difference between the total binding and the non-specific binding was defined as specific binding.

| Compound | IC50 (Dopamine D2 Receptor) | IC50 (human D4.2 receptor) |
| --- | --- | --- |
| CSc1ncc(CCN2CCC(=Cc3ccccc3F)CC2)c(-c2ccc(F)cc2)n1 [Compound A-14, 4-(4-fluorophenyl)-5-[2-[4-(2-fluorobenzylidene)piperidin-1-yl]ethyl]-2-methylthiopyrimidine dihydrochloride] | 148 nM | 12.6 nM |
| Fc1ccc(C=C2CCN(CCc3cn[nH]c3-c3ccccc3)CC2)cc1 [Compound A-05] | 89 nM | 1.12 nM |
| Fc1ccc(-c2ncncc2CCN2CCC(=Cc3cccc(F)c3)CC2)cc1 [Compound A-11] | 521 nM | 4.53 nM |
